Values joined by “and” are separate entries in the source; they are usually repeats but may differ in a detail not shown here. Equal entries are not always repeated.
Columns and labels:
[1] = tested on: P. falciparum proteasome activity in cells (GFP-DD transfectants); assay: GFP-DD reporter degradation in transfectants (Western blot, flow cytometry); format: cell-based; conditions: trophozoites, 3 h exposure
Method: (§1) Figure 1 Structures, proteasome inhibition, and isobologram analysis of selected compounds. (A) Structures of MPI-1, MPI-2, MPI-3, and MPI-4 (compounds 1–4). (B) GFP-DD transfectants were maintained in Shield-1 for 24 h before wash-out prior to setting up experiments. Trophozoites were re-exposed to Shield-1 or exposed to indicated compounds for 3 h. Results are representative of four independent experiments. (i) Cell extracts were analyzed by Western blot using anti-GFP or anti-PfBiP as a loading control. (ii) GFP fluorescence measured by flow cytometry. Dotted line represents background (fluorescence of sample after washout of Shield-1). Data are the mean ± range/2 for the readings in technical duplicate from one experiment. Curves are fitted with the sigmoidal four-parameter model. (C) Isobologram analysis of the interaction of test compounds and DHA. Cam3.II (DHA resistant) parasites at very early ring stages were subjected to 3 h pulses in the presence of different combinations of DHA and test compounds. […]
Trophozoite-stage parasite cultures (GFP-DD parasites) at 5% hematocrit and 5% parasitemia were subjected to the drug treatment indicated in the figure legends at 37 °C. […] Syto-61 and GFP fluorescence was recorded using the FACSCanto II cytometer (Becton Dickinson). […] Parasites were gated based on parasite GFP fluorescence, and values reported are mean fluorescence. […]

[2] = tested on: Cam3.II^R539T early ring stages; assay: Isobologram analysis of interaction with DHA, 3 h pulse; format: cell-based, P. falciparum; conditions: early ring stages of K13 mutant Cam3.II^R539T, 3 h pulses
Method: as §1, with “experiment.” for “experiment. Curves are fitted with the sigmoidal four-parameter model. (C) Isobologram analysis of the interaction of test compounds and DHA. Cam3.II (DHA resistant) parasites at very early ring stages were subjected to 3 h pulses in the presence of different combinations of DHA and test compounds.”
For standard assays of antiplasmodial activity, sorbitol-treated ring stage parasites were incubated with the drugs for 72 h and viability was assessed in the second cycle.[12] […] Cells were then stained with 2 μM Syto-61 (Thermo Fisher Scientific), and their fluorescence was measured by flow cytometry (FACSCanto II cytometer; Becton Dickinson). Data were gated and analyzed using FCS Express software (version 3) to determine parasitemia of each sample. […] Interactions between DHA and MPI-1 or MPI-4 against the K13 mutant (DHA resistant) Cam3.II P. falciparum strain, exposed to a 3 h pulsed treatment, were determined at 4 h after invasion as described previously.[12]

[3] = target: human constitutive 20S proteasome β2c (Homo sapiens, UniProt P49720+Q99436); assay: Kinetic analysis, human constitutive 20S β2 (Ac-RQR-AMC); format: biochemical; conditions: Figure S3A
Method: (§2) Figure S 3. Kinetic analysis of MPI -4 against Pf20S and human constitutive 20S proteasome.
(§3) The association rate K on, half -life t 1/2 and equilibrium constant Ki for MPI -4 against human constitutive 20S (A, B) and Pf20S (C, D). 20S β2 (A, C) and β5 (B, D) activities were determined using fluorogenic substrates, Ac -RQR-AMC (human) or Ac -WLR-AMC ( P. falciparum ) and Ac - […]

[4] = target: T1, human constitutive 20S proteasome β5c (Homo sapiens, UniProt P20618+P28074); assay: Kinetic analysis, human constitutive 20S β5 (Ac-WLA-AMC); format: biochemical; conditions: Figure S3B
T1 construct: Residue positions are calculated at the start of the processed protein, and the first residue (Thr 1)
Method: as §2, §3

Pf20S β2 = Pf20S β2 (Plasmodium falciparum, UniProt Q8I261+Q8I6T3); assay: Kinetic analysis, Pf20S β2 (Ac-WLR-AMC); format: biochemical, P. falciparum; conditions: Figure S3C
Method: as §2, §3

Pf20S β5 = Pf20S β5 (Plasmodium falciparum, UniProt A0A5K1K7U1+Q8IJT1); assay: Kinetic analysis, Pf20S β5 (Ac-WLA-AMC); format: biochemical, P. falciparum; conditions: Figure S3D
Method: as §2, §3

3D7 B2a = assay: 72 h viability assay, bortezomib-resistant clone B2a; format: cell-based, Plasmodium falciparum; conditions: mean ± SEM, n=3
Method: For standard assays of antiplasmodial activity, sorbitol-treated ring stage parasites were incubated with the drugs for 72 h and viability was assessed in the second cycle.[12] Drug pulse assays were performed as described previously.[47] For short pulse assays, tightly synchronized early ring stage parasites (1–3 h after invasion) at 0.2% hematocrit and 1–2% parasitemia were subjected to 3 h drug pulse at 37 °C and returned to culture until parasites reached trophozoite stage of the following cycle. Cells were then stained with 2 μM Syto-61 (Thermo Fisher Scientific), and their fluorescence was measured by flow cytometry (FACSCanto II cytometer; Becton Dickinson). Data were gated and analyzed using FCS Express software (version 3) to determine parasitemia of each sample. Viability represents the parasitemia normalized to untreated and “kill treated” controls, where “kill treated” refers to samples treated with 2 μM DHA for 48–72 h. Interactions between DHA and MPI-1 or MPI-4 against the K13 mutant (DHA resistant) Cam3.II P. falciparum strain, exposed to a 3 h pulsed treatment, were determined at 4 h after invasion as described previously.[12]
Prior to selection, an aliquot of the parental line was stocked as a reference for subsequent whole genome sequencing analysis. […] Paired-end reads were either aligned to the P. falciparum 3D7 reference genome (PlasmoDB version 13.0).

[5] = tested on: Cam3.II^R539T early ring stages; design: method as in PMID 25901609; conditions: P. falciparum in culture; cited from earlier work

Pf20S β2, sequence (Q8I6T3 entry or part of it): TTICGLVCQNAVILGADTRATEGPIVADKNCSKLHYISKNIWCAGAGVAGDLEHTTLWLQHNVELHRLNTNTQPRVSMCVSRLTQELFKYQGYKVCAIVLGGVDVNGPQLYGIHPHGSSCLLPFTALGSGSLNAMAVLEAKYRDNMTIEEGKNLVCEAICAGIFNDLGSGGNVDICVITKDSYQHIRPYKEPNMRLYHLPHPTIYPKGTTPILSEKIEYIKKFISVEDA
Pf20S β2, sequence (Q8I261 entry or part of it): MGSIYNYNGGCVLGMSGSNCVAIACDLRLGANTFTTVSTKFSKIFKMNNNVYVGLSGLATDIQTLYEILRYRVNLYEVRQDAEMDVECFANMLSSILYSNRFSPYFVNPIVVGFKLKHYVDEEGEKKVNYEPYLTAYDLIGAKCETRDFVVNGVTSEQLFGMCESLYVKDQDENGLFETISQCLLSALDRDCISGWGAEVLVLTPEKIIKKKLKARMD
Pf20S β5, sequence (Q8IJT1 entry or part of it): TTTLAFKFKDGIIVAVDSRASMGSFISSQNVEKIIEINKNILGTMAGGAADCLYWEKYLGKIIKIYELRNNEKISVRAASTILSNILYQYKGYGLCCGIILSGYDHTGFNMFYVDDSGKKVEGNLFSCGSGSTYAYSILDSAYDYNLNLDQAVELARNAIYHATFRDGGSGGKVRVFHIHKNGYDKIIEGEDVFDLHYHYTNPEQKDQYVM
Pf20S β5, sequence (A0A5K1K7U1 entry or part of it): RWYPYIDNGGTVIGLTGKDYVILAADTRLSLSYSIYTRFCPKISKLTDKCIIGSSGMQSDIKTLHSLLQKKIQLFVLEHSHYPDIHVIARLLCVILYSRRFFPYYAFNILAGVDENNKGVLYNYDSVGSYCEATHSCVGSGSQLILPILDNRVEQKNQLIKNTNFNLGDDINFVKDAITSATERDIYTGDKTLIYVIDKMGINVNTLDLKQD

| Compound | inhibition of GFP-DD degradation in the absence of Shield-1 [1] | interaction with DHA [2] | koff ([3]; read-out: Koff, h20S β2) | kon ([3]; read-out: association rate Kon, h20S β2) | Ki ([3]; equilibrium constant) | koff ([4]; read-out: Koff, h20S β5) | kon ([4]; read-out: association rate Kon, h20S β5) | Ki ([4]; equilibrium constant) | koff (Pf20S β2; read-out: Koff, Pf 20S β2) | kon (Pf20S β2; read-out: association rate Kon, Pf 20S β2) | Ki (Pf20S β2; equilibrium constant, read-out: Ki, P. falciparum β2) | koff (Pf20S β5; read-out: Koff, Pf 20S β5) | kon (Pf20S β5; read-out: association rate Kon, Pf 20S β5) | Ki (Pf20S β5; equilibrium constant, read-out: Ki, P. falciparum β5) | LD50 (72 h), 3D7 B2a (3D7 B2a) | interaction with DHA (earlier work) [5] |
| --- | --- | --- | --- | --- | --- | --- | --- | --- | --- | --- | --- | --- | --- | --- | --- | --- |
| CC(=O)N1CCC[C@@H]1C(=O)N[C@@H](C)C(=O)N[C@@H](Cc1ccccc1)B(O)O [MPI-1] | a higher concentration of MPI-1 was needed to produce the same level of inhibition | pronounced synergistic interaction |  |  |  |  |  |  |  |  |  |  |  |  |  |  |
| CC(C)C[C@H](NC(=O)[C@H](Cc1ccccc1)NC(=O)Cc1ccc(O)cc1)B(O)O [MPI-4] |  | pronounced synergistic interaction | 0.00485 s⁻¹ | 9960 M⁻¹ s⁻¹ | 487 nM and 490 nM | 0.000109 s⁻¹ | 848000 M⁻¹ s⁻¹ | 0.1 nM | 0.000173 s⁻¹ | 27200 M⁻¹ s⁻¹ | ~5 nM | 0.000181 s⁻¹ | 41800 M⁻¹ s⁻¹ | ~5 nM |  |  |
| CC(C)C[C@H](NC(=O)[C@H](Cc1ccccc1)NC(=O)c1cnccn1)B(O)O [bortezomib, reference compound] | prevented GFP-DD degradation |  |  |  |  |  |  |  |  |  |  |  |  |  | 1.1 ± 0.1 µM | strong synergism |
